We go through one compound from patent EP0099122A2, “Compositions comprising pepstatin and an histamine H2-receptor antagonist having an enhanced antiulcer activity” (Bristol-Myers Company, priority 1982, dated 1984).

“Also recorded” adds a separate entry of the source. Square brackets hold non-standard residues; d marks the D form. Peptide text beside a SMILES is read from it. * marks the point of attachment. Sta = CC(C)C[C@H](N)[C@@H](O)CC(=O)O; Isovaleryl = CC(C)CC(=O)*

In data set [1] the test system is pylorus ligated rat. In words: Pylorus ligated (Shay) rat. The conditions noted are these: 20 mg/kg po, 18 hour pylorus ligated rat, previous studies of the applicant. It counts as in vivo. The method, then: The role of the proteolytic enzyme, pepsin, in the etiology of ulceration is not completely understood. […] It is also possible that pepsin is entirely responsible for the erosions and that the acid produces pain and retards healing. • 1) Umezawa, H. et al., in J. Antibiotics, 23, 259-262 (1970), disclose the pentapeptide, pepstatin, which has the structure [drawing 4] and which is a specific complexing agent for the enzyme pepsin. […] Pepstatin was administered in 100 mg doses, given seven aimes a day, this dosage being sufficient to inhibit the peptic activity of gastric juice for 18 hours a day. […] J. Gastroent., 14, 929-932 (1979), report the results of a double-blind randomized clinical trial of pepstatin versus placebo in patients having gastric ulcer. Pepstatin was administered in 100 mg doses seven times a day. […] When the two agents were given together, significant ulcer reduction was found after only one-half day of predosing. Carbenoxolone is not an antisecretory or anti-pepsin agent, but acts by stimulating gastric mucus synthesis. • 6) Dajani, E. Z. et al., in J. Pharmacol. Exp. Ther., 210, 373-377 (1979), disclose that, in stress ulceration tests in rats, a combination of cimetidine and propantheline bromide produced synergistic antiulcer activity and that a combination of cimetidine and thiopropazate hydrochloride produced additive antiulcer activity. […]

The conditions of data set [2]: cited from earlier work.
The next data set has as its system gastric peptic activity. The conditions noted are these: patients with ulcer dyspepsia, cited from earlier work.
The next data set concerns pepsin. As to conditions: 100 mg doses seven times a day, ulcer patients; cited from earlier work.
In data set [3] the test system is pepsin activity in the gastric juice of swine. The conditions noted are these: added to the feed at >50 ppm; cited from earlier work.
The test system of data set [4] is pylorus ligated rat. As to conditions: pylorus ligated (Shay) rat, Umezawa et al.; cited from earlier work.
For data set [5] the following is noted: all animal species studied; cited from earlier work.
For another data set, the system named is duodenal ulcer. The conditions noted are these: 100 mg doses seven times a day versus placebo; cited from earlier work.
The next data set has as its system gastric ulcer. As to conditions: 100 mg doses seven times a day versus placebo; cited from earlier work.

Take `CC(C)CC(=O)N[C@H](C(=O)N[C@H](C(=O)N[C@@H](CC(C)C)[C@@H](O)CC(=O)N[C@@H](C)C(=O)N[C@@H](CC(C)C)[C@@H](O)CC(=O)O)C(C)C)C(C)C` [Pepstatin, pepstatin] (Isovaleryl-VV[Sta]A[Sta]-OH): in the data set with pylorus ligated rat [1], the pepsin activity result is given as “completely inhibited pepsin activity” and the ulcer formation entry was “antagonized ulcer formation”. Also, the “excreted in the feces” value in [2] (oral administration, animal studies, within 72 hours) is recorded as “more than 90%”. The “absorption upon oral administration” value in data set [2] (oral) was “essentially unabsorbed; also recorded: only poorly absorbed”. The side effects entry with gastric peptic activity (daily oral doses of 700 mg for up to three months) is listed as “no side effects were observed”. In addition, in the data set with gastric peptic activity, the gastric acidity result is reported as “has no effect on the gastric acidity” and the gastric peptic activity entry is “inhibits gastric peptic activity”. The “time for which pepsin activity was inhibited” value with pepsin is 18 hours a day. Also, in data set [3], the occurrence of ulcers result is recorded as “prevented the occurrence of ulcers” and the “pepsin activity in the gastric juice” value was “inhibited pepsin activity in the gastric juice of swine”. Also, the “formation of stomach ulcers” value in the data set on pylorus ligated rat [4] was “prevent the formation of stomach ulcers”. The LD50 entry in data set [5] is listed as “exceeded 3000 mg/kg”. Moreover, the “healing or symptomatology of duodenal ulcer” value in the data set on duodenal ulcer was “no significant difference between pepstatin and placebo”. The “healing or symptomatology of gastric ulcer” value in the data set with gastric ulcer was “not able to detect any influence of pepstatin”.
